In patent EP2386565A2, “Compounds and methods to inhibit or augment an inflammatory response” (Cambridge Enterprise Ltd., priority 1999, dated 2000):
Positions of bridges follow the written chain, without caps; N, C: chain ends. Non-standard residues stand in square brackets, D forms with d. Residues, ends and D or L forms follow the SMILES beside them.

How the values were obtained:
[1] = tested on: IL8 induced human monocyte migration; assay: Migration of freshly prepared peripheral blood monocytes, IL8; type: cell-based
Procedure: (§1) Agents may also be screened in a chemotactic assay which employs human neutrophils, eosinophils, mast cells, basophils, platelets, lymphocytes or monocytes. For monocytes, 9 mls of fresh blood are transferred to a tube containing 1 ml of 3.8% sodium citrate, and left at room temperature for 15 minutes. Five mls of this anti-coagulated blood are carefully layered over 3.5 ml Polymorphprep® (Nycomed Pharma, Oslo), and centrifuged at 500 g for 35 minutes per the manufacturer's instructions. The top band at the sample/medium interface contains monocytes. The monocytes are carefully removed with a glass pipette, and reconstituted to the original volume (5 ml). The cells are washed with PBS plus 10% fetal calf serum, and centrifuged at 400 g for 10 minutes. The washing step is repeated three times before the cells are counted. Cells are resuspended at 1 × 10^7 cells/ml in RPMI-1640 + 10% fetal calf serum (FCS). The monocytes are cultured for two days at 37°C in a humidified atmosphere of 5% CO2-
(§2) On day 2, the cells are counted, spun down, and reconstituted to 1 × 10^7 cells/ml in Gey's balanced salt solution + 1 mg/ml bovine serum albumin (BSA). […]

[2] = tested on: TGFβ1 induced human monocyte migration; assay: Migration of freshly prepared peripheral blood monocytes, TGFβ1; type: cell-based
Procedure: as §1, §2

[3] = biological target: T1, 5-HT1a serotonin receptors (Homo sapiens, UniProt P08908); assay: Competition of 3H-8-OH-DPAT binding to membranes; conditions: 100 µM highest concentration tested
T1 construct: purchased RBI/Sigma S-160; host or cells: membranes
Procedure: For SHT1a serotonin receptors, membranes (S-160, RBI/Sigma) are diluted into binding buffer (50 mM Tris pH 7.4 10 mM MgCl2 and 0.5 mM EDTA, with ascorbate at 1 mg/ml added immediately before use), e.g., 10 µl of membranes in 500 µl assay volume (i.e., 1:50 dilution). Cold competitor or test competitor is then added, e.g., 5 µl of 100x stock solution such as 5 µl of 1 mM oxymetazoline. Radioligand (^3H-8-OH-DPAT, TRK850, Amersham, 250 µCi in 250 µl; 4.5 µM at 222 Ci/mmol) is then added. For competition studies, ligand is employed (e.g., a 100x stock (i.e., 150 nM) is prepared by diluting the commercial stock 1:30 in binding buffer). Control tubes are prepared which have radioligand but no membranes. The tubes are vortexed then spun briefly. The mixtures are incubated for 1 hour at 4°C. The mixtures are filtered through GF/C filters pre-soaked in polyethyleneimine (0.3% in MilliQ water). The tubes are washed with 2-3 ml of wash buffer and filtered. The filter is washed with 3 x 5 ml of wash buffer, and air dried. 4.5 ml of scintillant is added to the dried filter in a scintillation vial and the filter counted on a tritium channel.

Modified LD50 technique = type: in vivo, mouse; conditions: 11 mg i.p.
LPS-induced serum TNF-α = assay: Endotoxemia model (LPS i.p.); type: in vivo, mice
Procedure: A mouse endotoxemia model is used to screen agents of the invention for in vivo functional anti-inflammatory activity in a rapid manner. Female CD-1 mice are injected i.p. (ventral abdomen) with 583 µg LPS. mRNA and protein levels of TNF-α, IFN-γ, IL-4 and MCP-1 and other markers of the inflammatory response are then determined. Thirty minutes prior to LPS administration, the animals were administered one of three different doses of CRD-Leu4Ile11Cys13peptide 3(3-12)[MCP-1] as an intravenous loading dose and a subcutaneous bolus dose (on dorsum). PBS treated animals with and without LPS administration were positive and negative controls. Two hours later, animals were euthanized and serum collected. Serum was separated from the cell pellet and frozen until ELISA analysis of cytokine levels. Lung and liver samples were collected for mRNA analyses and histopathology. […] Serum levels and mRNA levels of IL-4, IFN-γ and MCP-1 are also determined.
Each animal received a pretreatment (200 ul) by sub-cutaneous injection into the scruff at the back of the neck. All pre-treatment agents were administered at 1 mg per animal (approximately 40-50 mg/kg). After 30-45 minutes, animals in groups 2 through 6 received 750 µg bacterial lipopolysaccharide (LPS) in 300 µl PBS by intraperitoneal injection. Animals in group 1 received PBS vehicle alone.
After 3 hours (2 hours post-LPS), all animals were sacrificed by terminal anaesthesia followed by cardiac puncture. Approximately 1 ml of blood was withdrawn and serum was prepared. Blood was allowed to clot at room temperature for approximately 2 hours, then the clot was spun out and the serum aliquoted and stored at -20°C until tested. Serum from each animal was assayed in duplicate for TNF-α using the Quantikine M kit (R&D Systems) calibrated by interpolation of the standard curve.

[4] = Acute and 7-day repeat dose toxicity study; type: in vivo, rat
Source text: That is, all animals remained clinically normal throughout.

[5] = tested on: SDF-1 induced calcium flux; assay: Intracellular calcium flux, SDF-1 as agonist; type: cell-based

T1 sequence (P08908 whole entry): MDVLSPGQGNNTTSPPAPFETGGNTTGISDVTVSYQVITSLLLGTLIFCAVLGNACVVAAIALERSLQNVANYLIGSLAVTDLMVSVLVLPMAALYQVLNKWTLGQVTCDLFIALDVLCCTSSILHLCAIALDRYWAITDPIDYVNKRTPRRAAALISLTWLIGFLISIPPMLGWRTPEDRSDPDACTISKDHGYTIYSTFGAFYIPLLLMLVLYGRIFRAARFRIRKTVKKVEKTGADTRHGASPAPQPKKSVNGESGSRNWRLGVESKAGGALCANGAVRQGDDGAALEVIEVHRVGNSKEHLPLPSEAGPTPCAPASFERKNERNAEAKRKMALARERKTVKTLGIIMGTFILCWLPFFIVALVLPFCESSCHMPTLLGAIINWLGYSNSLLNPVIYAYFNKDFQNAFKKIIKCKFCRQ

SMILES | % inhibition at 100 µM versus IL8 [1] | % inhibition at 100 µM versus TGFβ1 [2] | ED50 for competition of 8-OH-DPAT binding to 5-HT1a receptors [3] [µM] | lethality after intraperitoneal administration (in words) (Modified LD50 technique) | serum MCP-1 and liver MCP-1 RNA after LPS (in words) (LPS-induced serum TNF-α; mouse, in vivo) | serum TNF-α after LPS (in words) (LPS-induced serum TNF-α; mouse, in vivo) | serum TNF-α after LPS (in words) (LPS-induced serum TNF-α; mouse, in vivo, listed as CRD-Leu4Ile11Cys13peptide 3(3-12)[MCP-1]) | half-maximal dose for inhibition of LPS-stimulated TNF-α (LPS-induced serum TNF-α; s.c.) | acute toxicity (in words) ([4]; 1 or 10 mg (5-50 mg/kg) i.v.) | 7-day repeat dose toxicity (in words) ([4]; subcutaneous osmotic mini-pump, about 43 µg/hr for 7 days (7.2 mg)) | SDF-1 induced calcium flux (in words) [5]
CC[C@H](C)[C@H](NC(=O)[C@H](C)NC(=O)[C@H](CC(=O)O)NC(=O)[C@@H]1CCCN1C(=O)[C@H](CCC(N)=O)NC(=O)[C@H](C)N)C(=O)N[C@@H](CC(N)=O)C(=O)N[C@@H](C)C(=O)N1CCC[C@H]1C(=O)N[C@H](C(=O)N[C@H](C(=O)N[C@@H](CS)C(=O)N[C@@H](CS)C(=O)O)[C@@H](C)O)C(C)C [Peptide 1] (H-AQPDAINAPVTCC-OH; N-terminus and C-terminus assumed) | n.s. | n.s. | – | – | – | – | – | – | – | – | –
CC[C@@H](C)[C@H]1NC(=O)[C@@H](CCC(N)=O)NC(=O)[C@H](N)CSSC[C@H](C(N)=O)NC(=O)[C@@H](CC(C)C)NC(=O)[C@@H](CC(=O)O)NC(=O)[C@H]2CCCN2C(=O)[C@@H](CCCCN)NC(=O)[C@@H](CCC(N)=O)NC(=O)[C@@H](CCCCN)NC(=O)[C@@H](Cc2c[nH]c3ccccc23)NC1=O (H-[dC][dQ][dI][dW][dK][dQ][dK][dP][dD][dL][dC]-NH2; disulfide 1-11) | – | – | >100 | did not result in lethality | no modulation | dose-dependent inhibition | dose dependent decrease | approximately 100 µg per animal | no clinically detectable changes | no dose dependent or clinically significant changes | did block
